Key:
Assay in all cases: Phenotype microarray metabolic activity
Assay type in all cases: cell-based
Conditions in all cases: control = 1
[1] = test system: Streptococcus salivarius
Procedure: (§1) The extent of metabolic activity of the tested bacteria in the presence of the above-mentioned glycosides after 24 hours and 48 hours was investigated through a high throughput phenotype microarray system (PM) for microbial cells (Biolog Inc.). Each PM can contain up to 95 different biochemical compounds (e.g. glycosides) that may act as substrates for bacteria as well as one negative control, not containing the substrates. Microarray plates were used in which the different wells of each plate were pre-loaded (by the manufacturer, Biolog Inc.) with different glycosides to be tested. Each bacterial species was tested using a separate microarray plate. Thus, a single bacterial species was tested with a variety of glycosides on each particular plate. The microarrays are based on redox technology, using cell respiration as a universal reporter. Active cell respiration results in the reduction of a tetrazolium dye and in the formation of a strong color—for example, when using the tetrazolium dye “Biolog Redox Dye Mix D”, the color changes from transparent/colorless to purple when the dye is reduced. The observation of this color change indicates which of the substrates improve the metabolic activity and health of the cells. Each bacterial species was collected from blood agar plates (incubated for 48 hours anaerobically at 37° C.) and transferred to an IF-0 Base inoculation fluid (Biolog Inc.), which is a nutritionally poor medium. The resulting cell suspension was adjusted to a transmittance of 42% (relative to the transmittance of the base inoculation fluid with no bacterial species present) at 492 nm using a BioRad SmartSpec 3000 Photometer (the adjustment being effected by adding either further inoculation fluid or further bacteria until the transmittance of 42% was achieved). A 1:5 dilution of this suspension was prepared by mixing 3 mL of the 42% transmittance cell suspension with […] of an inoculation fluid (which inoculation fluid was formed by mixing 11.6 mL sterile water, 62.5 mL IF-0 base inoculation fluid and 0.9 mL of the tetrazolium dye “Biolog Redox Dye mix D”), resulting in a final cell density which was equal to 85% transmittance using a BioRad SmartSpec 3000 Photometer. For each of the glycosides tested, the microarray plate (obtained from the supplier (Biolog Inc.) with glycosides already present in the relevant wells in powder form) was directly inoculated with 100 μL/well of this 85% transmittance cell suspension. All plates were incubated in an anaerobic atmosphere at 37° C. Color changes were measured spectrophotometrically at 492 nm (Thermo Scientific Multiskan Ascent) at 24 hrs and 48 hrs using the same plate at both time points. […] After 24 hrs and 48 hrs under continuous shaking in a Multiscan microplate reader, the optical density (OD) of the synthetic medium at 24 hours and 48 hours was measured (using the microplate reader) at a wavelength of 492 nm for each combination of bacterium/glycoside, and for each of their respective controls (i.e. which contained the particular bacterium but no glycosides). […] The experiment was carried out three times for each combination of bacterium with glycosides, with each repeat being carried out on a different day (thus providing three biological replicas). The controls were also carried out three times, as above. The values shown are the average (mean) of the three single values obtained (as detailed above) for each combination of bacterium with glycosides, at 24 hrs and at 48 hrs.

[2] = test system: Veillonella parvula
Procedure: as §1

[3] = test system: Streptococcus sobrinus
Procedure: as §1

[4] = test system: Capnocytophaga sputigena
Procedure: as §1

[5] = test system: Streptococcus mutans
Procedure: as §1

[6] = test system: Streptococcus sanguinis
Procedure: as §1

[7] = test system: Streptococcus mitis
Procedure: as §1

[8] = test system: Actinomyces naeslundii
Procedure: as §1

[9] = test system: Fusobacterium nucleatum
Procedure: as §1

[10] = test system: Porphyromonas gingivalis
Procedure: as §1

[11] = test system: Prevotella intermedia
Procedure: as §1

[12] = test system: Streptococcus gordonii
Procedure: as §1

[13] = test system: Aggregatibacter actinomycetemcomitans
Procedure: as §1

[14] = test system: Tannerella forsythia
Procedure: as §1

[15] = test system: Actinomyces viscosus
Procedure: as §1

SMILES	OD 492 nm divided by control (metabolic activity) ([1]; 24 hrs)	OD 492 nm divided by control (metabolic activity) ([1]; 48 hrs)	OD 492 nm divided by control (metabolic activity) ([2]; 24 hrs)	OD 492 nm divided by control (metabolic activity) ([2]; 48 hrs)	OD 492 nm divided by control (metabolic activity) ([3]; 24 hrs)	OD 492 nm divided by control (metabolic activity) ([3]; 48 hrs)	OD 492 nm divided by control (metabolic activity) ([4]; 24 hrs)	OD 492 nm divided by control (metabolic activity) ([4]; 48 hrs)	OD 492 nm divided by control (metabolic activity) ([5]; 24 hrs)	OD 492 nm divided by control (metabolic activity) ([5]; 48 hrs)	OD 492 nm divided by control (metabolic activity) ([6]; 24 hrs)	OD 492 nm divided by control (metabolic activity) ([6]; 48 hrs)	OD 492 nm divided by control (metabolic activity) ([7]; 24 hrs)	OD 492 nm divided by control (metabolic activity) ([7]; 48 hrs)	OD 492 nm divided by control (metabolic activity) ([8]; 24 hrs)	OD 492 nm divided by control (metabolic activity) ([8]; 48 hrs)	OD 492 nm divided by control (metabolic activity) ([9]; 24 hrs)	OD 492 nm divided by control (metabolic activity) ([9]; 48 hrs)	OD 492 nm divided by control (metabolic activity) ([10]; 24 hrs)	OD 492 nm divided by control (metabolic activity) ([10]; 48 hrs)	other results
CO[C@H]1O[C@H](CO)[C@H](O)[C@H](O)[C@H]1O [α-methyl-D-galactoside]	0.9677	0.8829	0.9782	1.2054	1.0761	0.9730	0.5747	0.8435	1.0573	0.9904	1.0198	1.1007	1.3498	1.3555	2.1644	2.8156	0.8949	0.8204	0.8079	0.8180	OD 492 nm divided by control (metabolic activity) ([11]; 24 hrs): 0.9609; OD 492 nm divided by control (metabolic activity) ([11]; 48 hrs): 0.9269; OD 492 nm divided by control (metabolic activity) ([12]; 24 hrs): 0.8960; OD 492 nm divided by control (metabolic activity) ([12]; 48 hrs): 0.8401; OD 492 nm divided by control (metabolic activity) ([13]; 24 hrs): 0.8204; OD 492 nm divided by control (metabolic activity) ([13]; 48 hrs): 0.7697; OD 492 nm divided by control (metabolic activity) ([14]; 24 hrs): 1.0380; OD 492 nm divided by control (metabolic activity) ([14]; 48 hrs): 1.1302; OD 492 nm divided by control (metabolic activity) ([15]; 24 hrs): 2.4728; OD 492 nm divided by control (metabolic activity) ([15]; 48 hrs): 3.3823
CO[C@@H]1O[C@H](CO)[C@H](O)[C@H](O)[C@H]1O [β-methyl-D-galactoside]	6.9837	6.4661	0.8103	0.6840	1.3078	1.3002	1.0421	1.0860	1.1594	1.0780	1.0434	1.0609	1.0977	0.9864	1.5393	1.9886	0.9051	0.7899	1.1297	1.8212	OD 492 nm divided by control (metabolic activity) ([11]; 24 hrs): 1.0543; OD 492 nm divided by control (metabolic activity) ([11]; 48 hrs): 1.0046; OD 492 nm divided by control (metabolic activity) ([12]; 24 hrs): 1.4834; OD 492 nm divided by control (metabolic activity) ([12]; 48 hrs): 1.8026; OD 492 nm divided by control (metabolic activity) ([13]; 24 hrs): 0.8310; OD 492 nm divided by control (metabolic activity) ([13]; 48 hrs): 0.7733; OD 492 nm divided by control (metabolic activity) ([14]; 24 hrs): 1.2183; OD 492 nm divided by control (metabolic activity) ([14]; 48 hrs): 1.8850; OD 492 nm divided by control (metabolic activity) ([15]; 24 hrs): 2.8391; OD 492 nm divided by control (metabolic activity) ([15]; 48 hrs): 3.9827

— US10307357B2, “Prebiotic oral care compositions containing an alkyl glycoside” (COLGATE-PALMOLIVE COMPANY, priority 2013, dated 2019)
